Experimental data reported in PubChem BioAssay AID1963431 (Molecular Pharmacology Branch, DTP, NCI, 2024).

Test system: Rh18 complex spheroid viability, percent test/control
Assay: Anticancer human tumor Rh18 cell line growth inhibition [Asc];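 further: spheroids exposed to compound for 7 days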;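 on viability, T/C: 100% = DMSO vehicle control wells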
Conditions: for IC50: curve of first compound; for viability, T/C: stronger effect = lower value
Description: Multicellular complex tumor spheroid response to apoptosis pathway targeting inhibitors Alrizomadlin, Pelcitoclax, and Dasminapant in combination with a variety of drugs and investigational agents in selected tumor cell lines
The MDM2 inhibitor alrizomadlin, the Bcl-2/Bcl-xL inhibitor pelcitoclax, and the IAPs inhibitor dasminapant were evaluated both individually and in combination with standard of care and investigational anticancer small molecules within a complex spheroid model of solid tumors. . Complex spheroids include a stromal component modeled by human endothelial cells (HUVEC) and fibroblasts modeled by human mesenchymal stem cells (MSCs). The concentration ranges selected for each drug and investigational agent were based upon clinically achievable concentrations if the clinical Cmax of the agent was known.
Compounds. The drugs and investigational agents: alrizomadlin (APG-115; NSC831270), pelcitoclax (APG-1252; NSC835773), dasminapant (APG-1387;NSC834197), TAK-243 (NSC785004), copanlisib (NSC809693), olaparib (NSC753686), talazoparib (NSC767125), cobimetinib (NSC 768068), eltanexor (KPT-8602, NSC 794443), abemaciclib (NSC 768073), sotorasib (NSC818433), adagrasib (NSC 831453), MRTX-1133 (NSC 836407), Iadademestat (ORY1001, NSC 806812), and RMC-4630 (NSC839698), were obtained from the NCI Developmental Therapeutics Program Chemical Repository. The FDA-approved anticancer drug set is available from the Developmental Therapeutics Program at https://dtp.cancer.gov/organization/dscb/obtaining/available plates.htm. […] The stock solutions were prepared in dimethyl sulfoxide (DMSO, Sigma-Aldrich, St. Louis, MO, cat. D2650) at 800-fold the tested concentration and stored at -70 degrees C prior to their use. All drugs and investigational agents were tested over a range starting from a high concentration at or near the clinical Cmax and decreasing in half-log increments. If the clinical Cmax for an agent had not been determined, the highest concentration tested was 10 microM.
The patient-derived cancer (PDC) cell lines include five colon adenocarcinomas: 186277-243-T-J2-PDC, 616215-338-R-J1-PDC, 439559-082-T-J2-PDC, 463943-066-T-J2-PDC, and 519858-162-T-J1-PDC; three pancreatic carcinomas: 323965-272-R-J2-PDC, 521955-158-R6-J3-PDC, and 521955-158-R2-J5-PDC; two uterine sarcomas: 327498-152-R-J2-PDC and 993429-296-R-J1-PDC; two rhabdomyosarcomas: 755483-174-R-J1-PDC and 772245-204-R-J1-PDC; two soft tissue sarcomas: 126254-015-R-J1-PDC and 494315-158-R-J1-PDC; two malignant fibrous histiocytomas: 317291-083-R-J1-PDC and 596521-263-R-J1-PDC; two breast carcinomas: 171881-019-R-J1-PDC and 885512-296-R-J2-PDC; and one ovarian carcinoma: 6556581-035-R-J-PDC were obtained from the NCI PDMR, (https://pdmr.cancer.gov). The established cell lines HSSY-2 synovial sarcoma (RRID:CVCL 8719), SYO-1 synovial sarcoma (RRID:CVCL_7146), MPNST malignant peripheral neural sheath tumor were obtained from the Sloan Kettering Institute. The following established cell lines were purchased from the American Type Culture Collection (ATCC, Manassas, VA), Sor the received from the NCI repository:, PANC-1 pancreatic carcinoma (CRL-1469, RRID:CVCL_0480), OVCAR-5 ovarian carcinoma (RRID:CVCL_1628), OVCAR-8 ovarian carcinoma (RRID:CVCL_1629), , MCF-7 breast carcinoma (CRL-12584, RRID:CVCL_0031), MDA-MB-231 breast carcinoma (CRL-12532, RRID:CVCL_0062), NCI-H1876 small cell lung carcinoma (CRL-5902, RRID:CVCL_1503), NCI-H510A small cell lung carcinoma (HTB-184, RRID:CVCL_1565), NCI-H1417 (CRL-5869, RRID:CVCL_1469), and NCI-H196 small cell lung carcinoma (CRL-5823, RRID:CVCL_1509). Dr. Peter Houghton (Greehey Children's Cancer Research Institute, University of Texas Health Science Center, San Antonio, TX) provided Rh-18 rhabdomyosarcoma (RRID:CVCL_1659). Pooled donor human umbilical vein endothelial cells (HUVEC, Lonza, cat. CC-2519) and human mesenchymal stem cells (hMSC, Lonza, cat. PT-2501) were purchased from Lonza (Walkersville, MD).
Cell Culture. […]

[1] = second compound 0.03 µM, first compound 0.00316 µM
[2] = second compound 0.03 µM, first compound 0.01 µM
[3] = second compound 0.03 µM, first compound 0.0316 µM
[4] = second compound 0.03 µM, first compound 0.1 µM
[5] = second compound 0.0949 µM, first compound 0.00316 µM
[6] = second compound 0.0949 µM, first compound 0.01 µM
[7] = second compound 0.0949 µM, first compound 0.0316 µM
[8] = second compound 0.0949 µM, first compound 0.1 µM
[9] = second compound 0.3 µM, first compound 0.00316 µM
[10] = second compound 0.3 µM, first compound 0.01 µM
[11] = second compound 0.3 µM, first compound 0.0316 µM
[12] = second compound 0.3 µM, first compound 0.1 µM
[13] = second compound 0.949 µM, first compound 0.00316 µM
[14] = second compound 0.949 µM, first compound 0.01 µM
[15] = second compound 0.949 µM, first compound 0.0316 µM
[16] = second compound 0.949 µM, first compound 0.1 µM
[17] = second compound 3 µM, first compound 0.00316 µM
[18] = second compound 3 µM, first compound 0.01 µM
[19] = second compound 3 µM, first compound 0.0316 µM
[20] = second compound 3 µM, first compound 0.1 µM
[21] = second compound 0.03 µM, first compound 0.316 µM
[22] = second compound 0.03 µM, first compound 1 µM
[23] = second compound 0.0949 µM, first compound 0.316 µM
[24] = second compound 0.0949 µM, first compound 1 µM
[25] = second compound 0.3 µM, first compound 0.316 µM
[26] = second compound 0.3 µM, first compound 1 µM
[27] = second compound 0.949 µM, first compound 0.316 µM
[28] = second compound 0.949 µM, first compound 1 µM
[29] = second compound 3 µM, first compound 0.316 µM
[30] = second compound 3 µM, first compound 1 µM

IC50 (second compound 0.03 µM)	IC50 (second compound 0.0949 µM)	IC50 (second compound 0.3 µM)	IC50 (second compound 0.949 µM)	IC50 (second compound 3 µM)	Structure (SMILES)	viability, T/C [1]	viability, T/C [2]	viability, T/C [3]	viability, T/C [4]	viability, T/C [5]	viability, T/C [6]	viability, T/C [7]	viability, T/C [8]	viability, T/C [9]	viability, T/C [11]	viability, T/C [12]	viability, T/C [15]	viability, T/C [16]	viability, T/C [19]	viability, T/C [20]	other results
< 0.316 nM	< 0.316 nM	< 0.316 nM	< 0.316 nM	< 0.316 nM	Cn1ncnc1[C@H]1c2n[nH]c(=O)c3cc(F)cc(c23)N[C@@H]1c1ccc(F)cc1 + CCN1C(C(=O)NC23CCC(C(=O)O)(CC2)CC3)C(c2cccc(Cl)c2F)C2(C(=O)Nc3cc(Cl)ccc32)C12CCCCC2	45.6%	36.1%	39.4%	49%	25.6%	26.6%	25.5%	25.3%	13%	13.3%	13.3%	9.91%	9.54%	8.46%	7.12%	viability, T/C (second compound 0.03 µM, first compound 0.000316 µM): 39%; viability, T/C (second compound 0.03 µM, first compound 0.001 µM): 36.2%; viability, T/C (second compound 0.0949 µM, first compound 0.000316 µM): 22.7%; viability, T/C (second compound 0.0949 µM, first compound 0.001 µM): 27.1%; viability, T/C (second compound 0.3 µM, first compound 0.000316 µM): 13.3%; viability, T/C (second compound 0.3 µM, first compound 0.001 µM): 15.4%; viability, T/C [10]: 13.1%; viability, T/C (second compound 0.949 µM, first compound 0.000316 µM): 11.1%; viability, T/C (second compound 0.949 µM, first compound 0.001 µM): 11.2%; viability, T/C [13]: 11.7%; viability, T/C [14]: 10.4%; viability, T/C (second compound 3 µM, first compound 0.000316 µM): 9.71%; viability, T/C (second compound 3 µM, first compound 0.001 µM): 9.49%; viability, T/C [17]: 9.33%; viability, T/C [18]: 7.51%
< 31.6 nM	< 31.6 nM	< 31.6 nM	< 31.6 nM	< 31.6 nM	O=C(c1cc(Cc2n[nH]c(=O)c3ccccc23)ccc1F)N1CCN(C(=O)C2CC2)CC1 + CCN1C(C(=O)NC23CCC(C(=O)O)(CC2)CC3)C(c2cccc(Cl)c2F)C2(C(=O)Nc3cc(Cl)ccc32)C12CCCCC2			49.4%	38.6%			26.5%	26.8%		14.2%	13.7%	10.5%	11.3%	10.4%	8.17%	viability, T/C [21]: 43.2%; viability, T/C [22]: 41.7%; viability, T/C (second compound 0.03 µM, first compound 3.16 µM): 40.7%; viability, T/C (second compound 0.03 µM, first compound 10 µM): 46.3%; viability, T/C [23]: 28.7%; viability, T/C [24]: 29%; viability, T/C (second compound 0.0949 µM, first compound 3.16 µM): 25.1%; viability, T/C (second compound 0.0949 µM, first compound 10 µM): 23.7%; viability, T/C [25]: 14.7%; viability, T/C [26]: 12.3%; viability, T/C (second compound 0.3 µM, first compound 3.16 µM): 11.6%; viability, T/C (second compound 0.3 µM, first compound 10 µM): 12.4%; viability, T/C [27]: 10.7%; viability, T/C [28]: 10.2%; viability, T/C (second compound 0.949 µM, first compound 3.16 µM): 9.53%; viability, T/C (second compound 0.949 µM, first compound 10 µM): 9.36%; viability, T/C [29]: 9.35%; viability, T/C [30]: 10.7%; viability, T/C (second compound 3 µM, first compound 3.16 µM): 9%; viability, T/C (second compound 3 µM, first compound 10 µM): 8.64%
< 3.16 nM	< 3.16 nM	< 3.16 nM	< 3.16 nM	< 3.16 nM	O=C(c1ccc(F)c(F)c1Nc1ccc(I)cc1F)N1CC(O)([C@@H]2CCCCN2)C1 + CCN1C(C(=O)NC23CCC(C(=O)O)(CC2)CC3)C(c2cccc(Cl)c2F)C2(C(=O)Nc3cc(Cl)ccc32)C12CCCCC2	35.4%	36.8%	31.1%	33.5%	22.7%	20.1%	20.1%	13.9%	13%	10.7%	8.42%	9.23%	5.03%	10.8%	2.33%	viability, T/C [21]: 23.8%; viability, T/C [22]: 6.29%; viability, T/C [23]: 7.94%; viability, T/C [24]: 1.48%; viability, T/C [10]: 11.5%; viability, T/C [25]: 3.11%; viability, T/C [26]: 1.29%; viability, T/C [13]: 9.01%; viability, T/C [14]: 11.2%; viability, T/C [27]: 0.89%; viability, T/C [28]: 0.92%; viability, T/C [17]: 8.3%; viability, T/C [18]: 11.4%; viability, T/C [29]: 0.83%; viability, T/C [30]: 1.01%
